According to patent US20150105252A1, “SUBSTITUTED PYRAZOLES AS HERBICIDES” (E I DU PONT DE NEMOURS AND COMPANY, priority 2013, published 2015):

How the values were obtained:
barnyardgrass [1] = assay: Test A preemergence; format: in vivo, Echinochloa crus-galli; details: preemergence
Outline: (§1)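 Pre- and postemergence greenhouse test; loam+sand; cpd in non-phytotox. solvent/surfactant; post at 1–2 leaf, 2–10 cm; visual score ~10 d, 0 = none, 100 = complete control.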

corn = assay: Test A postemergence; format: in vivo, Zea mays
Outline: as §1

kochia [2] = assay: Test A postemergence; format: in vivo, Kochia scoparia
Excerpt: (§2) Seeds of plant species selected from barnyardgrass (Echinochloa crus-galli), kochia (Kochia scoparia), common ragweed (Ambrosia elation), Italian ryegrass (Lolium multiflorum), crabgrass, large (large crabgrass, Digitaria sanguinalis), foxtail, giant (giant foxtail, Setaria faberii), morningglory (Ipomoea spp.), pigweed (redroot pigweed, Amaranthus retroflexus), velvetleaf (Abutilon theophrasti), wheat (Triticum aestivum), and corn (Zea mays) were planted into a blend of loam soil and sand and treated preemergence with a directed soil spray using test chemicals formulated in a non-phytotoxic solvent mixture which included a surfactant.
(§3) At the same time, plants selected from these crop and weed species and also blackgrass (Alopecurus myosuroides), and galium (catchweed bedstraw, Galium aparine) were planted in pots containing the same blend of loam soil and sand and treated with postemergence applications of test chemicals formulated in the same manner. Plants ranged in height from 2 to 10 cm and were in the one- to two-leaf stage for the postemergence treatment. Treated plants and untreated controls were maintained in a greenhouse for approximately 10 days, after which time all treated plants were compared to untreated controls and visually evaluated for injury. Plant response ratings, summarized in Table A, are based on a 0 to 100 scale where 0 is no effect and 100 is complete control. A dash (-) response means no test result.

sedge, umbrella = assay: Test B flood; format: in vivo, Cyperus difformis; details: 250 g ai/ha, visual rating on 0 to 100 scale (0 no effect, 100 complete control), 13 to 15 days
Outline: (§4)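 Greenhouse assay lasting 13 to 15 days. Treatment was into water flooding pots 3 cm deep, at the 2-leaf stage, with that level sustained afterwards. Scores compare treated with control plants visually, 100 denoting complete control and 0 no effect; a dash marks no test result.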

ducksalad = assay: Test B flood; format: in vivo, Heteranthera limosa; details: 250 g ai/ha, visual rating on 0 to 100 scale (0 no effect, 100 complete control), 13 to 15 days
Outline: as §4

wheat = assay: Test A postemergence; format: in vivo, Triticum aestivum
Outline: as §1

rice = assay: Test B flood; format: in vivo, Oryza sativa; details: 250 g ai/ha, visual rating on 0 to 100 scale (0 no effect, 100 complete control), 13 to 15 days
Outline: as §4

kochia [3] = assay: Test A preemergence; format: in vivo, Kochia scoparia
Excerpt: as §2, §3

foxtail, giant [4] = assay: Test A postemergence; format: in vivo, Setaria faberii
Outline: as §1

pigweed [5] = assay: Test A postemergence; format: in vivo, Amaranthus retroflexus
Outline: as §1

foxtail, giant [6] = assay: Test A preemergence; format: in vivo, Setaria faberii; details: preemergence
Outline: as §1

blackgrass = assay: Test A postemergence; format: in vivo, Alopecurus myosuroides
Excerpt: as §2, §3

barnyardgrass [7] = assay: Test A postemergence; format: in vivo, Echinochloa crus-galli
Outline: as §1

common ragweed [8] = assay: Test A postemergence; format: in vivo, Ambrosia elation
Excerpt: as §2, §3

barnyardgrass [9] = assay: Test B flood; format: in vivo, Echinochloa crus-galli; details: 250 g ai/ha, visual rating on 0 to 100 scale (0 no effect, 100 complete control), 13 to 15 days
Outline: as §4

common ragweed [10] = assay: Test A preemergence; format: in vivo, Ambrosia elation
Excerpt: as §2, §3

Italian ryegrass [11] = assay: Test A postemergence; format: in vivo, Lolium multiflorum
Excerpt: as §2, §3

pigweed [12] = assay: Test A preemergence; format: in vivo, Amaranthus retroflexus; details: preemergence
Outline: as §1

Italian ryegrass [13] = assay: Test A preemergence; format: in vivo, Lolium multiflorum
Excerpt: as §2, §3

galium = assay: Test A postemergence; format: in vivo, Galium aparine
Excerpt: as §2, §3

[14] = 125 g ai/ha, visual injury, 0 to 100 scale, approx. 10 days
[15] = 500 g ai/ha, visual injury after approx. 10 days, 0 to 100 scale (0 no effect, 100 complete control)
[16] = Postemergence, 500 g ai/ha, 0 to 100 scale (0 no effect, 100 complete control)
[17] = postemergence, 125 g ai/ha, about 10 days, visual rating on 0 to 100 scale (0 no effect, 100 complete control)

Row | SMILES | Barnyardgrass plant response rating (barnyardgrass [1]; [14]) | Barnyardgrass plant response rating (barnyardgrass [1]; [15]) | Corn plant response rating (corn; [16]) | Corn plant response rating (corn; [17]) | Kochia plant response rating (kochia [2]; [16]) | Kochia plant response rating (kochia [2]; [17]) | Plant response rating, Sedge, Umbrella (sedge, umbrella) | Plant response rating, Ducksalad (ducksalad) | Wheat plant response rating (wheat; [16]) | Wheat plant response rating (wheat; [17]) | Plant response rating, Rice (rice) | Kochia plant response rating (kochia [3]; [14]) | Kochia plant response rating (kochia [3]; [15]) | Foxtail, Giant plant response rating (foxtail, giant [4]; [16]) | Foxtail, Giant plant response rating (foxtail, giant [4]; [17]) | Pigweed plant response rating (pigweed [5]; [16]) | Pigweed plant response rating (pigweed [5]; [17]) | Foxtail, Giant plant response rating (foxtail, giant [6]; [14]) | Foxtail, Giant plant response rating (foxtail, giant [6]; [15]) | Blackgrass plant response rating (blackgrass; [16]) | further results
1 | CCCNC(=O)c1cc(CC)n(Cc2cc(C(F)(F)F)no2)n1 [Compound 122] | 0 | 100 | 60 | 20 | 90 | 50 | 50 | 50 | 10 | 0 | 30 | 10 | 90 | 90 | 0 | 40 | 30 | 20 | 100 | 80 | Blackgrass plant response rating (blackgrass; [17]): 10; Barnyardgrass plant response rating (barnyardgrass [7]; [16]): 70; Barnyardgrass plant response rating (barnyardgrass [7]; [17]): 0; Common Ragweed plant response rating (common ragweed [8]; [16]): 30; Common Ragweed plant response rating (common ragweed [8]; [17]): 10; Plant response rating, Barnyardgrass (barnyardgrass [9]): 20; Common Ragweed plant response rating (common ragweed [10]; [14]): 10; Italian Ryegrass plant response rating (Italian ryegrass [11]; [16]): 50; Italian Ryegrass plant response rating (Italian ryegrass [11]; [17]): 10; Pigweed plant response rating (pigweed [12]; [14]): 60; Pigweed plant response rating (pigweed [12]; [15]): 100; Italian Ryegrass plant response rating (Italian ryegrass [13]; [14]): 0; Italian Ryegrass plant response rating (Italian ryegrass [13]; [15]): 30; Galium plant response rating (galium; [16]): 70; Galium plant response rating (galium; [17]): 10
2 | CCCNC(=O)c1cc(CC)n(Cc2cc(OC(F)F)nn2C)n1 [Compound 134] | 0 | 90 | 30 | 10 | 90 | 60 | 0 | 0 | 10 | 0 | 0 | 80 | 100 | 70 | 10 | 90 | 40 | 20 | 100 | 50 | Blackgrass plant response rating (blackgrass; [17]): 10; Barnyardgrass plant response rating (barnyardgrass [7]; [16]): 30; Barnyardgrass plant response rating (barnyardgrass [7]; [17]): 10; Common Ragweed plant response rating (common ragweed [8]; [16]): 30; Common Ragweed plant response rating (common ragweed [8]; [17]): 20; Plant response rating, Barnyardgrass (barnyardgrass [9]): 0; Common Ragweed plant response rating (common ragweed [10]; [14]): 10; Common Ragweed plant response rating (common ragweed [10]; [15]): 80; Italian Ryegrass plant response rating (Italian ryegrass [11]; [16]): 10; Italian Ryegrass plant response rating (Italian ryegrass [11]; [17]): 0; Pigweed plant response rating (pigweed [12]; [14]): 20; Pigweed plant response rating (pigweed [12]; [15]): 100; Italian Ryegrass plant response rating (Italian ryegrass [13]; [14]): 0; Italian Ryegrass plant response rating (Italian ryegrass [13]; [15]): 10; Galium plant response rating (galium; [16]): 70; Galium plant response rating (galium; [17]): 30
3 | CCCCNC(=O)c1cc(CC)n(Cc2cc(OC(F)F)nn2C)n1 [Compound 135] | 0 | 0 | 20 | 10 | 100 | 70 | 0 | 0 | 0 | 0 | 0 | 70 | 100 | 10 | 0 | 40 | 10 | 0 | 50 | 20 | Blackgrass plant response rating (blackgrass; [17]): 0; Barnyardgrass plant response rating (barnyardgrass [7]; [16]): 10; Barnyardgrass plant response rating (barnyardgrass [7]; [17]): 10; Common Ragweed plant response rating (common ragweed [8]; [16]): 30; Common Ragweed plant response rating (common ragweed [8]; [17]): 10; Plant response rating, Barnyardgrass (barnyardgrass [9]): 0; Common Ragweed plant response rating (common ragweed [10]; [14]): 0; Common Ragweed plant response rating (common ragweed [10]; [15]): 0; Italian Ryegrass plant response rating (Italian ryegrass [11]; [16]): 0; Italian Ryegrass plant response rating (Italian ryegrass [11]; [17]): 0; Pigweed plant response rating (pigweed [12]; [14]): 0; Pigweed plant response rating (pigweed [12]; [15]): 50; Italian Ryegrass plant response rating (Italian ryegrass [13]; [14]): 0; Italian Ryegrass plant response rating (Italian ryegrass [13]; [15]): 0; Galium plant response rating (galium; [16]): 50; Galium plant response rating (galium; [17]): 20
4 | CCc1cc(C(=O)NC(C)C)nn1Cc1cc(OC(F)F)nn1C [Compound 137] | 10 | 70 | 30 | 10 | 90 | 50 | 30 | 30 | 10 | 0 | 0 | 30 | 100 | 70 | 10 | 80 | 50 | 20 | 80 | 50 | Blackgrass plant response rating (blackgrass; [17]): 10; Barnyardgrass plant response rating (barnyardgrass [7]; [16]): 60; Barnyardgrass plant response rating (barnyardgrass [7]; [17]): 0; Common Ragweed plant response rating (common ragweed [8]; [16]): 30; Common Ragweed plant response rating (common ragweed [8]; [17]): 10; Plant response rating, Barnyardgrass (barnyardgrass [9]): 0; Common Ragweed plant response rating (common ragweed [10]; [14]): 10; Common Ragweed plant response rating (common ragweed [10]; [15]): 100; Italian Ryegrass plant response rating (Italian ryegrass [11]; [16]): 20; Italian Ryegrass plant response rating (Italian ryegrass [11]; [17]): 0; Pigweed plant response rating (pigweed [12]; [14]): 60; Pigweed plant response rating (pigweed [12]; [15]): 100; Italian Ryegrass plant response rating (Italian ryegrass [13]; [14]): 0; Italian Ryegrass plant response rating (Italian ryegrass [13]; [15]): 40; Galium plant response rating (galium; [16]): 80; Galium plant response rating (galium; [17]): 50
